Reference: PMC2186054 (The Journal of Experimental Medicine, 1981)
Where “and” joins values, the source holds several entries; their conditions need not be identical. Equal entries are not always repeated.

Tests used:
[1] = test system: myeloma protein CAL20 TEPC1035; test: Quantitative precipitin inhibition assay, CAL20 TEPC1035 with dextran B1498S; type: binding, murine; details: for Relative potency: Table II, maltose = 1.0
myeloma protein J558 [2] = target: T1, myeloma protein J558 (Mus musculus, UniProt P01724+P01757); test: Quantitative precipitin inhibition assay, J558; type: binding, BALB/c mouse; details: at 0.99 µmol; 15 µg dextran B1498S
myeloma protein UPC102 = test: Quantitative precipitin inhibition assay, UPC102; type: binding, BALB/c mouse; details: at 0.52 µmol; 15 µg dextran B1355S
myeloma protein MOPC104E [3] = target: T2, myeloma protein MOPC104E (Mus musculus, UniProt P01724+P01756); test: Quantitative precipitin inhibition assay, MOPC104E; type: binding, BALB/c mouse; details: 25 µg dextran B1498S
myeloma protein MOPC104E [4] = target: T2, myeloma protein MOPC104E; details: cited from earlier work
[5] = test system: myeloma protein CAL20 TEPC1035; test: Quantitative precipitin assay with CAL20 TEPC1035; type: binding, murine; details: Table I; 6.5 µg antibody N, total vol 400 µl
myeloma protein J558 [6] = target: T1, myeloma protein J558; test: Quantitative precipitin assay with J558; type: binding, BALB/c mouse; details: Table I; total vol 400 µl
[7] = test system: serum 895 (anti-panosyl-α(1→4)DGlc); test: Quantitative precipitin assay with antiserum 895; type: binding, Rabbit; details: 80 µl undiluted serum, total vol 400 µl
[8] = inhibition of CAL20 TEPC1035-dextran B1498S precipitation

T1 sequence (P01757 whole entry): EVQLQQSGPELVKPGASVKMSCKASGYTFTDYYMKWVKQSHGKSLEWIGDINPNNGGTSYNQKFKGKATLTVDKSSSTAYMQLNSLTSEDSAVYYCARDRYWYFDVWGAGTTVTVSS
T1 sequence (P01724 20-129): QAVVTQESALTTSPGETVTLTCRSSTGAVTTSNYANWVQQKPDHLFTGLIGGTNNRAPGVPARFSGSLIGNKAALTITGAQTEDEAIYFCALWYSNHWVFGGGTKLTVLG
T2 sequence (P01756 whole entry): as the sequence (P01757 whole entry) above, with R100Y, Y101D counted along it
T2 sequence (P01724 20-129): as the sequence (P01724 20-129) above

## OC[C@H]1O[C@H](O[C@H]2[C@@H](OC[C@H]3OC(O)[C@H](O)[C@@H](O)[C@@H]3O)O[C@H](CO)[C@@H](O)[C@@H]2O)[C@H](O)[C@@H](O)[C@@H]1O (stereo partly shown) [DGlcα(1→2)DGlcα(1→6)DGlc]
[1]; at 0.36 µmol
  inhibition of precipitation: 15%

## OC[C@H]1OC(O)[C@H](O)[C@@H](O)[C@@H]1O (stereo partly shown) [Glucose]
[1]; at 0.2 µmol
  inhibition of precipitation: 22%
[1]; at 0.92 µmol (Table II)
  inhibition of precipitation: 22%

## nigerohexa-heptaose
[1]
  Relative potency: 0.33

## maltohexaose
[1]
  Relative potency: 2.4

## OC[C@H]1O[C@H](O[C@@H]2[C@@H](O)[C@@H](O[C@@H]3[C@@H](O)[C@@H](O[C@@H]4[C@@H](O)[C@@H](O[C@H]5[C@H](O)[C@@H](CO)OC(O)[C@@H]5O)O[C@H](CO)[C@H]4O)O[C@H](CO)[C@H]3O)O[C@H](CO)[C@H]2O)[C@H](O)[C@@H](O)[C@@H]1O (stereo partly shown) [Nigeropentaose, nigeropentaose]
[1]
  Relative potency: 0.29

## OC[C@H]1O[C@H](OC[C@H]2O[C@H](O[C@H]3[C@H](O)[C@@H](O)[C@@H](O[C@H]4[C@H](O)[C@@H](O)C(O)O[C@@H]4CO)O[C@@H]3CO)[C@H](O)[C@@H](O)[C@@H]2O)[C@H](O)[C@@H](O)[C@@H]1O (stereo partly shown) [DGlcα(1→6)DGlcα(1→4)DGlcα(1→4)DGlc]
[1]
  Relative potency: 2.4
[1]; [8]
  times more potent than the trisaccharide DGlcα(1→6)DGlcα(1→3)DGlc: 1.5 times

## OC[C@H]1O[C@H](OC[C@H]2O[C@H](OC[C@H]3OC(O)[C@H](O)[C@@H](O)[C@@H]3O)[C@H](O)[C@@H](O)[C@@H]2O)[C@H](O)[C@@H](O)[C@@H]1O (stereo partly shown) [Isomaltotriose, isomaltotriose]
[1]
  Relative potency: 0.20

## OC[C@H]1O[C@H](O[C@@H]2[C@@H](O)[C@@H](OC[C@H]3OC(O)[C@H](O)[C@@H](O)[C@@H]3O)O[C@H](CO)[C@H]2O)[C@H](O)[C@@H](O)[C@@H]1O (stereo partly shown) [DGlcα(1→3)DGlcα(1→6)DGlc]
[1]; at 0.16 µmol
  inhibition of precipitation: 40%

## OC[C@H]1O[C@H](OC[C@H]2O[C@H](OC[C@H]3O[C@H](OC[C@H]4O[C@H](OC[C@H]5OC(O)[C@H](O)[C@@H](O)[C@@H]5O)[C@H](O)[C@@H](O)[C@@H]4O)[C@H](O)[C@@H](O)[C@@H]3O[C@H]3O[C@H](CO)[C@@H](O)[C@H](O)[C@H]3O)[C@H](O)[C@@H](O)[C@@H]2O)[C@H](O)[C@@H](O)[C@@H]1O (stereo partly shown) [II/3, 43-a-v-glucosylisomaltopen taose]
[1]
  Relative potency: 0.8

## OC[C@H]1O[C@H](O[C@H]2[C@H](O)[C@@H](O)[C@@H](OC[C@H]3O[C@H](O[C@H]4[C@H](O)[C@@H](O)[C@@H](O[C@H]5[C@H](O)[C@@H](O)[C@@H](OC[C@H]6OC(O)[C@H](O)[C@@H](O)[C@@H]6O)O[C@@H]5CO)O[C@@H]4CO)[C@H](O)[C@@H](O)[C@@H]3O)O[C@@H]2CO)[C@H](O)[C@@H](O)[C@@H]1O (stereo partly shown) [Isopanosylα(1→4)isopanose, DGlcα(1→4)DGlcα(1→6)DGlcα(1→4)DGlcα(1→4)DGlcα(1→6)DGlc]
[1]
  Relative potency: 1.0
[1]; [8]
  times more potent than isopanose: 2.85 times

## 34-a-u-glucosylisomaltohexaose [I/5]
[1]; at 0.15 µmol
  inhibition of precipitation: 47%

## OC[C@H]1O[C@H](OC[C@H]2OC(O)[C@H](O)[C@@H](O)[C@@H]2O)[C@H](O)[C@@H](O)[C@@H]1O (stereo partly shown) [Isomaltose, isomaltose]
[1]
  Relative potency: 0.19
[1]; [8]
  activity relative to methyl α-D-glucoside: one-half

## OC[C@H]1O[C@H](OC[C@H]2O[C@H](O[C@H]3[C@H](O)[C@@H](O)C(O)O[C@@H]3CO)[C@H](O)[C@@H](O)[C@@H]2O)[C@H](O)[C@@H](O)[C@@H]1O (stereo partly shown) [Panose]
[1]
  Relative potency: 8.0
[1]; [8]
  times more active than kojibiose: > 42 times
  times more potent than the tetrasaccharide DGlcα(1→6)DGlcα(1→4)DGlcα(1→4)DGlc: 3.3 times and 2.5 times
Myeloma protein J558 [2]
  inhibition of precipitation of J558: 15%
Myeloma protein UPC102
  inhibition of precipitation of UPC102: 15%
Myeloma protein MOPC104E [3]; up to 0.99 µmol
  inhibition of precipitation of MOPC104E: no inhibition
Myeloma protein MOPC104E [4]
  relative potency at 50% inhibition relative to nigerose as 1.0 on a molar basis: 0.105

## OC[C@H]1O[C@H](OC[C@H]2O[C@H](OC[C@H]3O[C@H](OC[C@H]4O[C@H](OC[C@H]5O[C@H](OC[C@H]6OC(O)[C@H](O)[C@@H](O)[C@@H]6O)[C@H](O)[C@@H](O)[C@@H]5O)[C@H](O)[C@@H](O)[C@@H]4O)[C@H](O)[C@@H](O)[C@@H]3O)[C@H](O)[C@@H](O)[C@@H]2O)[C@H](O)[C@@H](O)[C@@H]1O (stereo partly shown) [Isomaltohexaose, isomaltohexaose]
[1]; at 0.41 µmol
  inhibition of precipitation: 20%

## O=C[C@H](O)[C@@H](O)[C@H](O[C@@H]1O[C@H](CO)[C@@H](O)[C@H](O)[C@H]1O)[C@H](O)CO [Cellobiose, DGlcβ(1→4)DGlc]
[1]
  Relative potency: 0.24

## Glycogen
[5]
  Precipitating power with CAL20 TEPC1035: -
Myeloma protein J558 [6]
  Precipitating power with J558: -
[7]
  Precipitation with serum 895: precipitated poorly

## OC[C@H]1O[C@H](OC[C@H]2O[C@H](OC[C@H]3O[C@H](OC[C@H]4O[C@H](OC[C@H]5OC(O)[C@H](O)[C@@H](O)[C@@H]5O)[C@H](O)[C@@H](O)[C@@H]4O)[C@H](O)[C@@H](O)[C@@H]3O)[C@H](O)[C@@H](O)[C@@H]2O)[C@H](O)[C@@H](O)[C@@H]1O (stereo partly shown) [Isomaltopentaose, isomaltopentaose]
[1]; at 0.5 µmol
  inhibition of precipitation: 44%
[1]; at 0.59 µmol (Table II)
  inhibition of precipitation: 44%

## OC[C@H]1O[C@H](O[C@H]2[C@H](O)[C@@H](O)C(O)O[C@@H]2CO)[C@H](O)[C@@H](O)[C@@H]1O (mixture of isomers) [Maltose, maltose]
[1]
  Relative potency: 1.0
[1]; [8]
  activity relative to methyl α-D-glucoside: three times

## Gentiobiose
[1]
  Relative potency: 0.12

## CC(=O)OC[C@@H](O)[C@@H](O)[C@H](O)[C@@H](O)C=O [6-O-acetyl-glucose, 6-O-acetyl-glucose]
[1]
  Relative potency: 0.14

## maltoheptaose
[1]
  Relative potency: 2.4

## OC[C@H]1O[C@H](O[C@@H]2[C@@H](O)[C@@H](O[C@H]3[C@H](O)[C@@H](CO)OC(O)[C@@H]3O)O[C@H](CO)[C@H]2O)[C@H](O)[C@@H](O)[C@@H]1O (stereo partly shown) [Nigerotriose, nigerotriose]
[1]
  Relative potency: 0.29

## OC[C@H]1O[C@H](O[C@H]2[C@H](O)[C@@H](O)[C@@H](OC[C@H]3OC(O)[C@H](O)[C@@H](O)[C@@H]3O)O[C@@H]2CO)[C@H](O)[C@@H](O)[C@@H]1O (stereo partly shown) [Isopanose, DGlcα(1→4)DGlcα(1→6)DGlc]
[1]
  Relative potency: 0.35

## Pullulan
[5]
  Precipitating power with CAL20 TEPC1035: -
Myeloma protein J558 [6]
  Precipitating power with J558: -
[7]
  Precipitation with serum 895: precipitated poorly

## OC[C@H]1O[C@H](OC[C@H]2O[C@H](O[C@H]3[C@H](O)[C@@H](CO)OC(O)[C@@H]3O)[C@H](O)[C@@H](O)[C@@H]2O)[C@H](O)[C@@H](O)[C@@H]1O (stereo partly shown) [DGlcα(1→6)DGlcα(1→3)DGlc]
[1]
  Relative potency: 1.6

## OC[C@H]1O[C@H](O[C@H]2[C@H](O)[C@@H](O)[C@@H](O[C@H]3[C@H](O)[C@@H](O)[C@@H](O[C@H]4[C@H](O)[C@@H](O)C(O)O[C@@H]4CO)O[C@@H]3CO)O[C@@H]2CO)[C@H](O)[C@@H](O)[C@@H]1O (stereo partly shown) [Maltotetraose, maltotetraose]
[1]
  Relative potency: 1.0

## maltotriose
[1]
  Relative potency: 1.0

## maltopentaose
[1]
  Relative potency: 1.41

## OC[C@H]1O[C@H](O[C@H]2O[C@H](CO)[C@@H](O)[C@H](O)[C@H]2O)[C@H](O)[C@@H](O)[C@@H]1O [Trehalose, DGlcα(1→1)DGlc]
[1]; at 1.1 µmol
  inhibition of precipitation: No inhibition

## OC[C@H]1O[C@H](O[C@H]2C(O)O[C@H](CO)[C@@H](O)[C@@H]2O)[C@H](O)[C@@H](O)[C@@H]1O (stereo partly shown) [Kojibiose, DGlcα(1→2)DGlc]
[1]; at 0.98 µmol
  inhibition of precipitation: 20%

## OC[C@H]1O[C@H](OC[C@H]2O[C@H](OC[C@H]3O[C@H](OC[C@H]4O[C@H](OC[C@H]5O[C@H](OC[C@H]6O[C@H](OC[C@H]7OC(O)[C@H](O)[C@@H](O)[C@@H]7O)[C@H](O)[C@@H](O)[C@@H]6O)[C@H](O)[C@@H](O)[C@@H]5O)[C@H](O)[C@@H](O)[C@@H]4O)[C@H](O)[C@@H](O)[C@@H]3O)[C@H](O)[C@@H](O)[C@@H]2O)[C@H](O)[C@@H](O)[C@@H]1O (stereo partly shown) [Isomaltoheptaose, isomaltoheptaose]
[1]; at 0.4 µmol
  inhibition of precipitation: 35%

## OC[C@H]1O[C@H](O[C@@H]2[C@@H](O)[C@@H](O[C@@H]3[C@@H](O)[C@@H](O[C@H]4[C@H](O)[C@@H](CO)OC(O)[C@@H]4O)O[C@H](CO)[C@H]3O)O[C@H](CO)[C@H]2O)[C@H](O)[C@@H](O)[C@@H]1O (stereo partly shown) [Nigerotetraose, nigerotetraose]
[1]
  Relative potency: 0.29
Myeloma protein MOPC104E [3]; at 0.82 µmol
  inhibition of precipitation of MOPC104E: 75%

## OC[C@H]1O[C@H](O[C@H]2[C@H](O)[C@@H](CO)OC(O)[C@@H]2O)[C@H](O)[C@@H](O)[C@@H]1O (stereo partly shown) [Nigerose, nigerose]
[1]
  Relative potency: 0.35
[1]; [8]
  activity relative to methyl α-D-glucoside: equally
Myeloma protein MOPC104E [3]; at 0.9 µmol
  inhibition of precipitation of MOPC104E: 25%
